{
  "source": "PubChem BioAssay (NCI)",
  "assay_in_all_cases": "NCI tumour cell line growth inhibition, 48 h",
  "key": {"LOX IMVI melanoma": {"tested_on": "LOX IMVI melanoma"}, "NCI-H226 lung": {"tested_on": "NCI-H226 lung"}, "CCRF-CEM leukemia": {"tested_on": "CCRF-CEM leukemia"}, "A498 renal": {"tested_on": "A498 renal"}, "PC-3 prostate": {"tested_on": "PC-3 prostate"}, "SN12C renal": {"tested_on": "SN12C renal"}, "SR leukemia": {"tested_on": "SR leukemia"}, "KM12 colon": {"tested_on": "KM12 colon"}, "SW-620 colon": {"tested_on": "SW-620 colon"}, "EKVX NSCLC": {"tested_on": "EKVX NSCLC"}, "RXF 393 renal": {"tested_on": "RXF 393 renal"}, "MALME-3M melanoma": {"tested_on": "MALME-3M melanoma"}, "HOP-92 NSCLC": {"tested_on": "HOP-92 NSCLC"}, "HCT-116 colon": {"tested_on": "HCT-116 colon"}, "NCI-H23 lung": {"tested_on": "NCI-H23 lung"}, "CAKI-1 renal": {"tested_on": "CAKI-1 renal"}, "BT-549 breast": {"tested_on": "BT-549 breast"}, "OVCAR-8 ovarian": {"tested_on": "OVCAR-8 ovarian"}, "DU-145 prostate": {"tested_on": "DU-145 prostate"}, "OVCAR-4 ovarian": {"tested_on": "OVCAR-4 ovarian"}, "MDA-MB-231 breast": {"tested_on": "MDA-MB-231 breast"}, "HL-60(TB) leukemia": {"tested_on": "HL-60(TB) leukemia"}, "M14 melanoma": {"tested_on": "M14 melanoma"}, "T-47D breast": {"tested_on": "T-47D breast"}, "HT29 colon": {"tested_on": "HT29 colon"}, "TK-10 renal": {"tested_on": "TK-10 renal"}, "ACHN renal": {"tested_on": "ACHN renal"}, "IGROV1 ovarian": {"tested_on": "IGROV1 ovarian"}, "NCI/ADR-RES ovarian": {"tested_on": "NCI/ADR-RES ovarian"}, "A549 NSCLC": {"tested_on": "A549 NSCLC"}, "RPMI-8226 leukemia": {"tested_on": "RPMI-8226 leukemia"}, "SNB-19 CNS": {"tested_on": "SNB-19 CNS"}, "NCI-H522 lung": {"tested_on": "NCI-H522 lung"}, "HOP-62 NSCLC": {"tested_on": "HOP-62 NSCLC"}, "SK-MEL-28 melanoma": {"tested_on": "SK-MEL-28 melanoma"}, "OVCAR-3 ovarian": {"tested_on": "OVCAR-3 ovarian"}, "MDA-N": {"tested_on": "MDA-N"}, "COLO 205 colon": {"tested_on": "COLO 205 colon"}, "HCT-15 colon": {"tested_on": "HCT-15 colon"}, "HS 578T breast": {"tested_on": "HS 578T breast"}, "UO-31 renal": {"tested_on": "UO-31 renal"}, "SK-OV-3 ovarian": {"tested_on": "SK-OV-3 ovarian"}, "OVCAR-5 ovarian": {"tested_on": "OVCAR-5 ovarian"}, "UACC-257 melanoma": {"tested_on": "UACC-257 melanoma"}, "MCF7 breast": {"tested_on": "MCF7 breast"}, "SF-268 CNS": {"tested_on": "SF-268 CNS"}, "U251 CNS": {"tested_on": "U251 CNS"}, "UACC-62 melanoma": {"tested_on": "UACC-62 melanoma"}, "SK-MEL-2 melanoma": {"tested_on": "SK-MEL-2 melanoma"}, "MOLT-4 leukemia": {"tested_on": "MOLT-4 leukemia"}, "MDA-MB-435": {"tested_on": "MDA-MB-435"}, "786-0 renal": {"tested_on": "786-0 renal"}, "SF-295 CNS": {"tested_on": "SF-295 CNS"}, "SK-MEL-5 melanoma": {"tested_on": "SK-MEL-5 melanoma"}, "HCC-2998 colon": {"tested_on": "HCC-2998 colon"}, "K-562 leukemia": {"tested_on": "K-562 leukemia"}, "SF-539 CNS": {"tested_on": "SF-539 CNS"}},
  "note": "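Exposure lasted 48 hours, with cells grown in 96-well plates and compounds tested at five concentrations. TGI: total growth inhibition.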",
  "data": [
    {"molecule": "CCOC(=O)c1sc2nc(SC)nc3c2c1NCN3c1ccc2c(c1)OCO2", "values": [
      {"measurement": "TGI", "setting": "LOX IMVI melanoma", "value": "> 100", "unit": "µM"},
      {"measurement": "TGI", "setting": "NCI-H226 lung", "value": "> 100", "unit": "µM"},
      {"measurement": "TGI", "setting": "CCRF-CEM leukemia", "value": 32.9, "unit": "µM"},
      {"measurement": "TGI", "setting": "A498 renal", "value": 87.4, "unit": "µM"},
      {"measurement": "TGI", "setting": "PC-3 prostate", "value": 37.2, "unit": "µM"},
      {"measurement": "TGI", "setting": "SN12C renal", "value": "> 100", "unit": "µM"},
      {"measurement": "TGI", "setting": "SR leukemia", "value": "> 100", "unit": "µM"},
      {"measurement": "TGI", "setting": "KM12 colon", "value": "> 100", "unit": "µM"},
      {"measurement": "TGI", "setting": "SW-620 colon", "value": 45.1, "unit": "µM"},
      {"measurement": "TGI", "setting": "EKVX NSCLC", "value": "> 100", "unit": "µM"},
      {"measurement": "TGI", "setting": "RXF 393 renal", "value": 10.3, "unit": "µM"},
      {"measurement": "TGI", "setting": "MALME-3M melanoma", "value": 53.2, "unit": "µM"},
      {"measurement": "TGI", "setting": "HOP-92 NSCLC", "value": 32.4, "unit": "µM"},
      {"measurement": "TGI", "setting": "HCT-116 colon", "value": "> 100", "unit": "µM"},
      {"measurement": "TGI", "setting": "NCI-H23 lung", "value": "> 100", "unit": "µM"},
      {"measurement": "TGI", "setting": "CAKI-1 renal", "value": "> 100", "unit": "µM"},
      {"measurement": "TGI", "setting": "BT-549 breast", "value": "> 100", "unit": "µM"},
      {"measurement": "TGI", "setting": "OVCAR-8 ovarian", "value": 20.1, "unit": "µM"},
      {"measurement": "TGI", "setting": "DU-145 prostate", "value": 39.7, "unit": "µM"},
      {"measurement": "TGI", "setting": "OVCAR-4 ovarian", "value": 26.4, "unit": "µM"},
      {"measurement": "TGI", "setting": "MDA-MB-231 breast", "value": 43, "unit": "µM"},
      {"measurement": "TGI", "setting": "HL-60(TB) leukemia", "value": "> 100", "unit": "µM"},
      {"measurement": "TGI", "setting": "M14 melanoma", "value": 71.2, "unit": "µM"},
      {"measurement": "TGI", "setting": "T-47D breast", "value": "> 100", "unit": "µM"},
      {"measurement": "TGI", "setting": "HT29 colon", "value": "> 100", "unit": "µM"},
      {"measurement": "TGI", "setting": "TK-10 renal", "value": 43.7, "unit": "µM"},
      {"measurement": "TGI", "setting": "ACHN renal", "value": 26, "unit": "µM"},
      {"measurement": "TGI", "setting": "IGROV1 ovarian", "value": "> 100", "unit": "µM"},
      {"measurement": "TGI", "setting": "NCI/ADR-RES ovarian", "value": 30.8, "unit": "µM"},
      {"measurement": "TGI", "setting": "A549 NSCLC", "value": 25.4, "unit": "µM"},
      {"measurement": "TGI", "setting": "RPMI-8226 leukemia", "value": "> 100", "unit": "µM"},
      {"measurement": "TGI", "setting": "SNB-19 CNS", "value": 31.2, "unit": "µM"},
      {"measurement": "TGI", "setting": "NCI-H522 lung", "value": 98.1, "unit": "µM"},
      {"measurement": "TGI", "setting": "HOP-62 NSCLC", "value": 18.7, "unit": "µM"},
      {"measurement": "TGI", "setting": "SK-MEL-28 melanoma", "value": "> 100", "unit": "µM"},
      {"measurement": "TGI", "setting": "OVCAR-3 ovarian", "value": 50, "unit": "µM"},
      {"measurement": "TGI", "setting": "MDA-N", "value": "> 100", "unit": "µM"},
      {"measurement": "TGI", "setting": "COLO 205 colon", "value": "> 100", "unit": "µM"},
      {"measurement": "TGI", "setting": "HCT-15 colon", "value": "> 100", "unit": "µM"},
      {"measurement": "TGI", "setting": "HS 578T breast", "value": 8.07, "unit": "µM"},
      {"measurement": "TGI", "setting": "UO-31 renal", "value": 69.8, "unit": "µM"},
      {"measurement": "TGI", "setting": "SK-OV-3 ovarian", "value": 24.2, "unit": "µM"},
      {"measurement": "TGI", "setting": "OVCAR-5 ovarian", "value": "> 100", "unit": "µM"},
      {"measurement": "TGI", "setting": "UACC-257 melanoma", "value": "> 100", "unit": "µM"},
      {"measurement": "TGI", "setting": "MCF7 breast", "value": "> 100", "unit": "µM"},
      {"measurement": "TGI", "setting": "SF-268 CNS", "value": 18, "unit": "µM"},
      {"measurement": "TGI", "setting": "U251 CNS", "value": 23.1, "unit": "µM"},
      {"measurement": "TGI", "setting": "UACC-62 melanoma", "value": 31.8, "unit": "µM"},
      {"measurement": "TGI", "setting": "SK-MEL-2 melanoma", "value": 58.8, "unit": "µM"},
      {"measurement": "TGI", "setting": "MOLT-4 leukemia", "value": 78.8, "unit": "µM"},
      {"measurement": "TGI", "setting": "MDA-MB-435", "value": 52.7, "unit": "µM"},
      {"measurement": "TGI", "setting": "786-0 renal", "value": 15, "unit": "µM"},
      {"measurement": "TGI", "setting": "SF-295 CNS", "value": 53.3, "unit": "µM"},
      {"measurement": "TGI", "setting": "SK-MEL-5 melanoma", "value": "> 100", "unit": "µM"},
      {"measurement": "TGI", "setting": "HCC-2998 colon", "value": "> 100", "unit": "µM"},
      {"measurement": "TGI", "setting": "K-562 leukemia", "value": "> 100", "unit": "µM"},
      {"measurement": "TGI", "setting": "SF-539 CNS", "value": 51.1, "unit": "µM"}
    ]}
  ]
}
